Data on 26 molecules can be found in patent publication US20250002463A1, “NEW SALT FORMS OF AMILORIDE AND ITS DERIVATIVES FOR PHARMACEUTICAL USE” (PSOMRI Holding AB, priority 2021, published 2025).

Data set [1] in a line: Polymorphism: solid forms found in salt screen by HT-XRPD. It is filed as physicochemical. The conditions noted are these: DME, THF; for Polymorphism: Example 1 salt screen in MeOH; for salt polymorphs found from all three crystallization solvents: Example 2, MeOH. On the procedure: (§1) The precipitated solids were analyzed by high throughput X-ray powder diffractometry (HT XRPD). Liquid phases (both solutions and mother liquors) were evaporated at ambient conditions and the residual solids were analyzed by HT XRPD.
The salt screen experiments were carried out in methanol (MeOH), 1,2-dimethoxyethane (DME) and tetrahydrofuran (THF).

A short description of data set [2]: Physical stability under Accelerated Aging Conditions (AAC, 40° C./75% RH, 2 days), HT-XRPD. The conditions noted are these: for Physically stable after AAC: Example 1; for Physically stable after AAC / physical stability upon exposure to AAC: 40° C./75% RH for 2 days; for Physical Stability: AAC 40° C./75% RH, 2 days, re-analyzed by HT-XRPD; for physical stability upon exposure to AAC: Example 2.

Data set [3] in a line: Crystallinity of salt forms by HT-XRPD. The class given is physicochemical. The note with it: salt screen solid forms. On the procedure:
as §1
XRPD patterns were obtained using the Ardena T2 high-throughput XRPD set-up. The plates were mounted on a Bruker General Area Detector Diffraction System (GADDS) equipped with a VÅNTEC-500 gas area detector corrected for intensity and geometric variations. The calibration of the measurement accuracy (peaks position) was performed using NIST SRM1976 standard (Corundum).
No background subtraction or curve smoothing was applied to the XRPD patterns.

Take `NC(=NC(=O)c1nc(Cl)c(N)nc1N)NCc1ccccc1.NC(=NC(=O)c1nc(Cl)c(N)nc1N)NCc1ccccc1.O=S(=O)(O)O` [SUL1]: the Polymorphism result in data set [1] is “Yes”. In data set [2], the “Physically stable after AAC” value is “physically stable and Yes”.

With `CC(C)(C)C(=O)O.NC(=NC(=O)c1nc(Cl)c(N)nc1N)NCc1ccccc1` [PIV1], the “salt polymorphs found from all three crystallization solvents” value (from here on “salt polymorphs found”) in data set [1] was “only one salt polymorph”. Further, in data set [3], the Crystallinity entry is “Good”. In data set [2], the “Physical Stability” value is recorded as “Stable” and the “physical stability upon exposure to AAC” value is recorded as “physically stable”.

Take `NC(=NC(=O)c1nc(Cl)c(N)nc1N)NCc1ccccc1.O=S(=O)(O)c1cccc2c(S(=O)(=O)O)cccc12` [NDS1]: the “salt polymorphs found” value in data set [1] is listed as “only one salt polymorph”. The Crystallinity entry in data set [3] was “Good”. Also, in data set [2], the “Physical Stability” value is on record as “Stable” and the “physical stability upon exposure to AAC” value was “physically stable”.

In the case of `CC(=O)O.NC(=NC(=O)c1nc(Cl)c(N)nc1N)NCc1ccccc1` [ACA2], the Polymorphism entry in data set [1] is reported as “Yes”. Further, the “Physically stable after AAC” value in data set [2] was “physically stable and Yes”.

Take `NC(=NC(=O)c1nc(Cl)c(N)nc1N)NCc1ccccc1.O=C(O)c1cccnc1` [NIC1]: the “salt polymorphs found” value in data set [1] is on record as “only one salt polymorph”. Besides, in data set [3], the Crystallinity result is given as “Good”. Also, in data set [2], the “Physical Stability” value was “Stable” and the “physical stability upon exposure to AAC” value is “physically stable”.

`CCCCCCCCCCCCCCCCCC(=O)O.NC(=NC(=O)c1nc(Cl)c(N)nc1N)NCc1ccccc1` [STE1]: the Crystallinity result in data set [3] was “Obtained as mixture”. Further, in data set [2], the “Physical Stability” value is “Stable” and the “physical stability upon exposure to AAC” value is “physically stable”.

Turning to `Cl.N/C(=N\C(=O)c1nc(Cl)c(N)nc1N)NCc1ccccc1` [Benzamil HCl SM1, reference compound], the Polymorphism entry in data set [1] is “Yes”. In data set [2], the “Physically stable after AAC” value is given as “No”.

With `NC(=NC(=O)c1nc(Cl)c(N)nc1N)NCc1ccccc1.O=C(O)c1ccccc1` [BNZ3], in data set [1], the Polymorphism entry is given as “Yes”. Further, the “Physically stable after AAC” value in data set [2] is “physically stable and Yes”.

In the case of `NC(=NC(=O)c1nc(Cl)c(N)nc1N)NCc1ccccc1.O=S(=O)(O)CCS(=O)(=O)O` [EDY1], in data set [3], the Crystallinity result is “Good”. Also, the “Physical Stability” value in data set [2] is given as “Unstable”.

In the case of `CCC(=O)O.NC(=NC(=O)c1nc(Cl)c(N)nc1N)NCc1ccccc1` [PRO1], the Crystallinity result in data set [3] is on record as “Good”. Also, the “Physical Stability” value in data set [2] is on record as “Unstable”.

With `NC(=NC(=O)c1nc(Cl)c(N)nc1N)NCc1ccccc1.O=C(O)C[C@H](O)C(=O)O` [MAL1], in data set [3], the Crystallinity entry was “Good”. For the same molecule, in data set [2], the “Physical Stability” value is listed as “Stable” and the “physical stability upon exposure to AAC” value is “physically stable”.

On to `CCC(=O)O.NC(=NC(=O)c1nc(Cl)c(N)nc1N)NCc1ccccc1` [PRO3], for which the Crystallinity entry in data set [3] is “Moderate”. Moreover, in data set [2], the “Physical Stability” value was “Unstable”.

Consider `Br.Br.NC(=NC(=O)c1nc(Cl)c(N)nc1N)NCc1ccccc1` [HBR3], for which the Crystallinity result in data set [3] is on record as “Moderate”. The “Physical Stability” value in data set [2] is “Unstable”.

Take `N=C(NCc1ccccc1)NC(=O)c1nc(Cl)c(N)nc1N.O=S(=O)(O)c1ccc2ccccc2c1` [NSA1]: the Crystallinity result in data set [3] is “Good”. Besides, the “Physical Stability” value in data set [2] is “Unstable”.

Turning to `CCS(=O)(=O)O.NC(=NC(=O)c1nc(Cl)c(N)nc1N)NCc1ccccc1` [ESY1], the Crystallinity entry in data set [3] was “Good”. For the same molecule, in data set [2], the “Physical Stability” value is “Stable” and the “physical stability upon exposure to AAC” value was “physically stable”.

In the case of `NC(=NC(=O)c1nc(Cl)c(N)nc1N)NCc1ccccc1.O=C(O)c1cc(O)ccc1O` [GEN1], in data set [3], the Crystallinity result is “Moderate”. In data set [2], the “Physical Stability” value is recorded as “Stable” and the “physical stability upon exposure to AAC” value is “physically stable”.

In the case of `NC(=NC(=O)c1nc(Cl)c(N)nc1N)NCc1ccccc1.O=CO` [FOR2], the Crystallinity entry in data set [3] is given as “Moderate/Poor”. Also, the “Physical Stability” value in data set [2] is recorded as “Unstable”.

For the molecule `N=C(NCc1ccccc1)NC(=O)c1nc(Cl)c(N)nc1N.O=C(O)C(O)C(O)C(=O)O` [TAR1], the Polymorphism result in data set [1] is reported as “Unclear”. Further, the results for the “Physically stable after AAC” value in data set [2] and in data set [2] (listed as TAR1 pc) were “physically stable” and “Yes”, respectively.

For the molecule `NC(=NC(=O)c1nc(Cl)c(N)nc1N)NCc1ccccc1.O=C(O)c1ccco1` [FUR3], in data set [3], the Crystallinity entry is “Good”. Moreover, in data set [2], the “Physical Stability” value is “Unstable”.

For the molecule `NC(=NC(=O)c1nc(Cl)c(N)nc1N)NCc1ccccc1.O=C(O)CCCCC(=O)O` [ADI1], the Crystallinity entry in data set [3] is given as “Good”. The “Physical Stability” value in data set [2] was “Unstable”.

`NC(=NC(=O)c1nc(Cl)c(N)nc1N)NCc1ccccc1.O=C(O)C=CC(=O)O` [MAE2]: the Crystallinity entry in data set [3] is recorded as “Good”. Moreover, in data set [2], the “Physical Stability” value was “Stable” and the “physical stability upon exposure to AAC” value is listed as “physically stable”.

`CCCCC(=O)O.NC(=NC(=O)c1nc(Cl)c(N)nc1N)NCc1ccccc1` [VAL1]: the Crystallinity result in data set [3] was “Good”. Besides, in data set [2], the “Physical Stability” value is “Stable” and the “physical stability upon exposure to AAC” value is “physically stable”.

In the case of `NC(=NC(=O)c1nc(Cl)c(N)nc1N)NCc1ccccc1.O=C(O)c1cc(=O)[nH]c(=O)[nH]1` [ORO3], the Crystallinity result in data set [3] is “Poor”. In data set [2], the “Physical Stability” value was “Poor-”.

Consider `NC(=NC(=O)c1nc(Cl)c(N)nc1N)NCc1ccccc1.O=S(=O)(O)c1ccccc1` [BES1], for which, in data set [3], the Crystallinity result is “Good”. The “Physical Stability” value in data set [2] is “Unstable”.

With `NC(=NC(=O)c1nc(Cl)c(N)nc1N)NCc1ccccc1.O=C(O)c1ccccc1O` [SAL1], the Crystallinity result in data set [3] is “Good”. Also, in data set [2], the “Physical Stability” value was “Stable” and the “physical stability upon exposure to AAC” value is “physically stable”.

With PAM3, in data set [3], the Crystallinity entry is recorded as “Poor”. The “Physical Stability” value in data set [2] is listed as “Unstable”.
